From patent publication US20260166039A1 (SCHRÖDINGER, INC., priority 2022, published 2026) come the findings set out here.

For one assay, the target named is T1, Wee1 kinase domain (Homo sapiens, UniProt P30291).
T1 construct: Wee1 kinase domain was purchased from Carna (catalog #05-177); purchased Carna 05-177
As to the kind of experiment: Wee1 Kinase Biochemical Assay (ADP-Glo). Conditions: 15 uM ATP. The procedure, abridged:
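The reaction mix held 1 nM Wee1 kinase domain, 15 uM ATP and 2 ng/mL Poly(Lys,Tyr 4:1) substrate and was left for 4 hours at 25 °C. ADP production was then measured with ADP-Glo, and percent inhibition was derived relative to DMSO and a saturating Wee1 inhibitor.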

Assay [1] relates to phosphorylation of Cdc2 Y15 (Wee1 substrate) in A427 cells. Nature of the assay: Phosphorylated Cdc2 MSD Electrochemiluminescence Assay. As to conditions: Homo sapiens. Format: cell-based. The procedure, abridged:
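Read-out: percent residual phospho-Cdc2 Y15 relative to DMSO and positive-control Wee1 inhibitor, measured by MSD electrochemiluminescence capture/detection antibody assay in cell lysates. A427 cells received duplicate 3-fold compound dilution series 20 h post-seeding, with 6 h total incubation at 37 °C.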

[2] abbreviates: class symbols, 1 nM Wee1 enzyme, 4 hours at 25° C.
The mark [3] stands for this setting: A-427, class symbols, read-out: A427 pCDC2 MSD IC50.

Structures are written as SMILES. Like-named read-outs stand apart in the source and are kept apart here. Bounds are passed on as bounds.

T1 sequence (P30291 299-569 limits assumed): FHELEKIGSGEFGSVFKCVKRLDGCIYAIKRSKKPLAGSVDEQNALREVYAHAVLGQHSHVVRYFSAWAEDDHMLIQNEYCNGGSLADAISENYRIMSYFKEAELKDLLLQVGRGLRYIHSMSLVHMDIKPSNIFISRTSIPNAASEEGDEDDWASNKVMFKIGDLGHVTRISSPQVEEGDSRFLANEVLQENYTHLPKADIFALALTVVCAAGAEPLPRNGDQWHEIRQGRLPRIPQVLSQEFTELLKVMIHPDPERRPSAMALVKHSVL

Take `C[C@H]1COC(=O)N1c1cccc(N2c3nc(Nc4ccc(C5CCN(C)CC5)cc4)ncc3[C@@]3(C)COC(C)(C)C[C@@H]23)n1` (single isomer, unassigned) [Example 251]: the IC50 was < 10 nM against Wee1 kinase domain (Wee1 kinase domain, ADP-Glo) and 100 to 1000 nM in assay [1] (A-427, pCDC2 MSD).

As for `C[C@H]1COC(=O)N1c1cccc(N2c3nc(Nc4ccc(O[C@@H]5CCNC5)cc4)ncc3[C@@]3(C)COC(C)(C)C[C@@H]23)n1` (single isomer, unassigned) [Example 327], the IC50 was < 10 nM on Wee1 kinase domain (Wee1 kinase domain, ADP-Glo) and 100 to 1000 nM in assay [1] (A-427, pCDC2 MSD).

For `Cn1nc(Nc2ncc3c(n2)N(c2cccc(N=S(C)(C)=O)n2)[C@@H]2CC(C)(C)OC[C@]32C)ccc1=O` (single isomer, unassigned) [Example 365], the IC50 against Wee1 kinase domain (Wee1 kinase domain, ADP-Glo) was < 10 nM; in assay [1] (A-427, pCDC2 MSD), 1000 to 10000 nM.

On to `Cn1cc(C(=O)Nc2ncc3c(n2)N(c2cccc(N=S(C)(C)=O)n2)[C@@H]2CC(C)(C)OC[C@]32C)cn1` (single isomer, unassigned) [Example 408], for which the values for the IC50 (on Wee1 kinase domain (setting [2]); in assay [1] (setting [3])) were < 10 nM and 1000 to 10000 nM, respectively.

With `C[C@H]1CCC(=O)N1c1cccc(N2c3nc(Nc4ccc(N5C[C@H]6C[C@@H]5CN6C)cc4)ncc3[C@@]3(C)COC(C)(C)C[C@@H]23)n1` [Example 657, (S)-5-methyl-1-(6-((4bR,8aR)-4b,7,7-trimethyl-2-((4-((1R,4R)-5-methyl-2,5-diazabicyclo[2.2.1]heptan-2-yl)phenyl)amino)-4b,7,8,8a-tetrahydropyrano[3′,4′:4,5]pyrrolo[2,3-d]pyrimidin-9(5H)-yl)pyridin-2-yl)pyrrolidin-2-one], the IC50 at Wee1 kinase domain (setting [2]) was < 10 nM; in assay [1] (setting [3]) it was 100 to 1000 nM.

On to `C[C@H]1COC(=O)N1c1cccc(N2c3nc(Nc4ccc([C@@H]5CCNC5)cc4)ncc3[C@@]3(C)COC(C)(C)C[C@@H]23)n1` (single isomer, unassigned) [Example 275], for which the IC50 at Wee1 kinase domain (Wee1 kinase domain, ADP-Glo) was < 10 nM; in assay [1] (A-427, pCDC2 MSD) it was 100 to 1000 nM.

Consider `CNCc1cccc(N2c3nc(Nc4ccc(N5C6CCC5COC6)c(C)c4)ncc3[C@@]3(C)COC(C)(C)C[C@@H]23)n1` (single isomer, unassigned) [Example 85], for which the IC50 is < 10 nM against Wee1 kinase domain (Wee1 kinase domain, ADP-Glo) and 100 to 1000 nM in assay [1] (A-427, pCDC2 MSD).

In the case of `CC1(C)C[C@H]2N(c3cccc(N=S(C)(C)=O)n3)c3nc(NC(=O)[C@@H]4C[C@H]4C4CCOCC4)ncc3[C@@]2(C)CO1` (single isomer, unassigned) [Example 412], the IC50 at Wee1 kinase domain (setting [2]) is < 10 nM; in assay [1] (setting [3]), ≥ 10000 nM.

For `CC1(C)C[C@H]2N(c3ccc4c(n3)[C@@](C)(N)CC4)c3nc(Nc4ccc(N5CCOCC5)cc4)ncc3[C@@]2(C)CO1` (single isomer, unassigned) [Example 565], the IC50 against Wee1 kinase domain (setting [2]) was < 10 nM; in assay [1] (setting [3]), 100 to 1000 nM.

Turning to `CC1(C)C[C@H]2N(c3cccc(N4CCCC4=O)n3)c3nc(Nc4ccc([C@@H]5CCNC5)cc4)ncc3[C@@]2(C)CO1` [Example 632, 1-(6-((4bR,8aR)-4b,7,7-trimethyl-2-((4-((S)-pyrrolidin-3-yl)phenyl)amino)-4b,7,8,8a-tetrahydropyrano[3′,4′:4,5]pyrrolo[2,3-d]pyrimidin-9(5H)-yl)pyridin-2-yl)pyrrolidin-2-one], the IC50 against Wee1 kinase domain (setting [2]) is < 10 nM; in assay [1] (setting [3]) it was 100 to 1000 nM.

Consider `CN1CCN(c2cncc(Nc3ncc4c(n3)N(c3cccc(N=S(C)(C)=O)n3)[C@@H]3CC(C)(C)OC[C@]43C)c2)CC1` (single isomer, unassigned) [Example 483], for which the IC50 was < 10 nM against Wee1 kinase domain (setting [2]) and < 100 nM in assay [1] (setting [3]).

For `CN1CC(c2ccc(Nc3ncc4c(n3)N(c3cccc(N5CCCC5=O)n3)[C@@H]3CC(C)(C)OC[C@]43C)cc2)C1` [Example 696, 1-(6-((4bR,8aR)-4b,7,7-trimethyl-2-((4-(1-methylazetidin-3-yl)phenyl)amino)-4b,7,8,8a-tetrahydropyrano[3′,4′:4,5]pyrrolo[2,3-d]pyrimidin-9(5H)-yl)pyridin-2-yl)pyrrolidin-2-one], the IC50 against Wee1 kinase domain (setting [2]) was < 10 nM; in assay [1] (setting [3]), 100 to 1000 nM.

On to `CN1CCN(c2ccc(Nc3ncc4c(n3)N(c3ccn(C5CC5)n3)[C@@H]3CC(C)(C)OC[C@]43C)cc2)CC1` (single isomer, unassigned) [Example 739], for which the IC50 was < 10 nM against Wee1 kinase domain (setting [2]) and 1000 to 10000 nM in assay [1] (setting [3]).

Take `C[C@H]1COC(=O)N1c1cccc(N2c3nc(Nc4ccc([C@H]5CCN(C)C5)nc4)ncc3[C@]3(C)COC(C)(C)C[C@H]23)n1` (single isomer, unassigned) [Example 262]: the IC50 against Wee1 kinase domain (Wee1 kinase domain, ADP-Glo) was 100 to 1000 nM; in assay [1] (A-427, pCDC2 MSD), 100 to 1000 nM.

For `CN[C@H](C)c1cccc(N2c3nc(Nc4ccc(N5CCOCC5)cc4)ncc3[C@@]3(C)COC(C)(C)C[C@@H]23)n1` (single isomer, unassigned) [Example 549], the IC50 on Wee1 kinase domain (setting [2]) was < 10 nM; in assay [1] (setting [3]), < 100 nM.

Consider `C[C@H]1COC(=O)N1c1cccc(N2c3nc(Nc4ccc(N5C[C@H]6C[C@@H]5CN6C)c(F)c4)ncc3[C@@]3(C)COC(C)(C)C[C@@H]23)n1` (single isomer, unassigned) [Example 291], for which the IC50 is < 10 nM against Wee1 kinase domain (Wee1 kinase domain, ADP-Glo) and 100 to 1000 nM in assay [1] (A-427, pCDC2 MSD).

With `CC1(C)C[C@H]2N(c3cccc(N4CCOC4=O)n3)c3nc(Nc4ccc([C@H]5CNCC5(F)F)cc4)ncc3[C@@]2(C)CO1` [Example 682, 3-(6-((4bR,8aR)-2-((4-((S)-4,4-difluoropyrrolidin-3-yl)phenyl)amino)-4b,7,7-trimethyl-4b,7,8,8a-tetrahydropyrano[3′,4′:4,5]pyrrolo[2,3-d]pyrimidin-9(5H)-yl)pyridin-2-yl)oxazolidin-2-one], the IC50 on Wee1 kinase domain (setting [2]) is < 10 nM; in assay [1] (setting [3]) it was 100 to 1000 nM.

With `CN1C[C@@H]2CN(c3ccc(Nc4ncc5c(n4)N(c4cccc(N=S(C)(C)=O)n4)[C@@H]4CC(C)(C)OC[C@]54C)cc3)C[C@@H]2C1` (single isomer, unassigned) [Example 217], the half-inhibitory concentration (IC50) against Wee1 kinase domain (Wee1 kinase domain, ADP-Glo) was < 10 nM; in assay [1] (A-427, pCDC2 MSD) it was 100 to 1000 nM.

In the case of `Cc1cc(Nc2ncc3c(n2)N(c2cccc(N=S(C)(C)=O)n2)[C@@H]2CC(C)(C)OC[C@]32C)ccc1[C@@H]1COCCN1` (single isomer, unassigned) [Example 114], the IC50 on Wee1 kinase domain (Wee1 kinase domain, ADP-Glo) was < 10 nM; in assay [1] (A-427, pCDC2 MSD) it was < 100 nM.

As to `CN1CC2CC1CN2c1ccc(Nc2ncc3c(n2)N(c2cccc(N=S(C)(C)=O)c2)C2CC(C)(C)OCC32C)cc1` (single isomer, unassigned) [Example 712], the IC50 was < 10 nM on Wee1 kinase domain (setting [2]) and 1000 to 10000 nM in assay [1] (setting [3]).

For `Cc1cc(Nc2ncc3c(n2)N(c2cccc(N=S(C)(C)=O)n2)[C@@H]2CC(C)(C)OC[C@]32C)ccc1N1CCN(C)CC1` (single isomer, unassigned) [Example 106], the IC50 at Wee1 kinase domain (Wee1 kinase domain, ADP-Glo) was < 10 nM; in assay [1] (A-427, pCDC2 MSD), < 100 nM.

Consider `CN[C@@H](C)c1cccc(N2c3nc(Nc4ccc(N5CCOCC5)cc4)ncc3[C@@]3(C)COC(C)(C)C[C@@H]23)n1` (single isomer, unassigned) [Example 537], for which the IC50 at Wee1 kinase domain (setting [2]) is < 10 nM; in assay [1] (setting [3]), 100 to 1000 nM.

Turning to `CNCc1cccc(N2c3nc(Nc4ccc(C5(C)COC5)cc4)ncc3[C@@]3(C)COC(C)(C)C[C@@H]23)n1` (single isomer, unassigned) [Example 84], the IC50 on Wee1 kinase domain (Wee1 kinase domain, ADP-Glo) is < 10 nM; in assay [1] (A-427, pCDC2 MSD), 100 to 1000 nM.

For the molecule `CN1CCC[C@H](n2cc(Nc3ncc4c(n3)N(c3cccc(N=S(C)(C)=O)n3)[C@@H]3CC(C)(C)OC[C@]43C)cn2)C1` (single isomer, unassigned) [Example 199], the IC50 at Wee1 kinase domain (Wee1 kinase domain, ADP-Glo) was < 10 nM; in assay [1] (A-427, pCDC2 MSD) it was 100 to 1000 nM.

Consider `CN[C@@H](C)c1cccc(N2c3nc(Nc4ccn(C5CCOCC5)c(=O)c4)ncc3[C@@]3(C)COC(C)(C)C[C@@H]23)n1` (single isomer, unassigned) [Example 390], for which the IC50 was < 10 nM against Wee1 kinase domain (Wee1 kinase domain, ADP-Glo) and 100 to 1000 nM in assay [1] (A-427, pCDC2 MSD).

On to `CC1(C)C[C@H]2N(c3cccc(C4CCNCC4)n3)c3nc(Nc4ccc(N5CCOCC5)cc4)ncc3[C@@]2(C)CO1` (single isomer, unassigned) [Example 531], for which the IC50 was < 10 nM on Wee1 kinase domain (setting [2]) and 100 to 1000 nM in assay [1] (setting [3]).

In the case of `CC1(C)C[C@H]2N(c3cccc(N=S4(=O)CCCC4)n3)c3nc(NC(=O)C4CC4)ncc3[C@@]2(C)CO1` (single isomer, unassigned) [Example 400], the IC50 on Wee1 kinase domain (setting [2]) was < 10 nM; in assay [1] (setting [3]), 100 to 1000 nM.

Regarding `CNCc1cccc(N2c3nc(Nc4ccc(N5CCCOCC5)cc4)ncc3[C@@]3(C)COC(C)(C)C[C@@H]23)n1` (single isomer, unassigned) [Example 18], the 50% inhibitory concentration (IC50) at Wee1 kinase domain (Wee1 kinase domain, ADP-Glo) was < 10 nM; in assay [1] (A-427, pCDC2 MSD), 100 to 1000 nM.

In the case of `C[C@H]1COC(=O)N1c1cccc(N2c3nc(Nc4ccc(C5CCN(C)CC5)nc4)ncc3[C@@]3(C)COC(C)(C)C[C@@H]23)n1` (single isomer, unassigned) [Example 297], the IC50 against Wee1 kinase domain (Wee1 kinase domain, ADP-Glo) was < 10 nM; in assay [1] (A-427, pCDC2 MSD), 100 to 1000 nM.

For the molecule `Cc1cc(Nc2ncc3c(n2)N(c2cccc(N=S(C)(C)=O)n2)[C@@H]2CC(C)(C)OC[C@]32C)ccc1[C@H]1CCN(C)C1` (single isomer, unassigned) [Example 147], the IC50 at Wee1 kinase domain (Wee1 kinase domain, ADP-Glo) was < 10 nM; in assay [1] (A-427, pCDC2 MSD), < 100 nM.

Take `CN1CC(c2ccc(Nc3ncc4c(n3)N(c3cccc(N=S(C)(C)=O)n3)[C@@H]3CC(C)(C)OC[C@]43C)cn2)C1` (single isomer, unassigned) [Example 192]: the IC50 against Wee1 kinase domain (Wee1 kinase domain, ADP-Glo) was < 10 nM; in assay [1] (A-427, pCDC2 MSD), 100 to 1000 nM.

Turning to `CNCc1cccc(N2c3nc(Nc4ccc([C@@H]5CCNC5)cc4)ncc3[C@@]3(C)COC(C)(C)C[C@@H]23)n1` (single isomer, unassigned) [Example 454], the IC50 was < 10 nM against Wee1 kinase domain (setting [2]) and 100 to 1000 nM in assay [1] (setting [3]).
